The values that follow come from US20240199571A1, “THIOPHENE COMPOUND AND APPLICATION THEREOF” (MEDSHINE DISCOVERY INC., priority 2021, published 2024).

Structures can show the parent of a compound that is named as a salt. Where two headings read alike, the source gives them in different places.

The target in series [1] is human LSD1 (Homo sapiens (Human), UniProt O60341). The experiment in a line: Experiment 1A: in vitro LSD1 enzyme activity, enzyme-coupled fluorescence (HRP/Amplex Red), H3K4me peptide 20 μM (Wuhan Heyan). The class given is biochemical. Conditions: histone H3K4me peptide 20 μM. As to the method:
Experiment 1A: Evaluation of Enzyme Activity
Testing unit: Wuhan Heyan Biomedical Technology Co., Ltd.
The purpose of the assay was to test the in vitro inhibitory activity of the compounds against LSD1. The enzyme used in the assay was human LSD1, and the standard substrate was histone H3K4me peptide (20 μM). The activity of the compounds was determined by the enzyme-coupling fluorescent method by the combined detection of H2O2 generated after the reaction of LSD1 by horseradish peroxidase (HRP) and the fluorescent reagent Amplex Red. Starting from 10 μM, the compounds were 3-fold diluted to detect the IC50 values of the compounds at 10 concentrations. The enzyme and substrate were incubated for 30 minutes before the compound was added to the substrate to start the reaction. Fluorescence detector: EnVision, excitation wavelength: Ex/Em=530/590 nM.

In series [2] the test system is NCI-H1417 cells. The experiment in a line: Experiment 2: inhibition of NCI-H1417 cell proliferation (CellTiter-Glo, 10 days). Conditions: Homo sapiens, 240 h, 10 days incubation. The class given is cell-based. In a few lines:
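Cells at 1000 per well exposed to 10-point 3-fold dilutions from 10 μM top concentration for 10 days. Viability by CellTiter-Glo luminescence; inhibition normalized to max/min controls, IC50 from four-parameter fit.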
Background: Cellular ATP, detected with luciferase, serves as a proxy for viable cell number.

The nature of series [3]: Experiment 3: pharmacokinetic evaluation in CD-1 mice (IV and oral). It counts as in vivo. Conditions: mouse, plasma; for clearance / half-life / Vd: IV 1 mg/kg; for clearance: read-out: Clearance rate CL; for half-life: read-out: Half life T1/2 (IV, h) (converted); for Vd: read-out: Volume of distribution at steady state Vdss; for bioavailability: PO 2 mg/kg vs IV 1 mg/kg, read-out: Bioavailability F (%); for AUC(0-t): PO 2 mg/kg, read-out: Area under drug-time curve AUC0-last PO; for Cmax: single dose, oral 2 mg/kg, read-out: Peak concentration Cmax. As to the method: Experiment 3: Pharmacokinetic Evaluation of Compounds
Experimental purpose: To test the pharmacokinetics of compounds in CD-1 mice in vivo
CD-1 mice (male/female, 7 to 9 weeks old, Shanghai SLAC)
The pharmacokinetic characteristics of the compounds in rodents after intravenous injection and oral administration were tested according to the standard protocol. In the experiment, the candidate compound was formulated into clear solutions, and a single intravenous injection and oral administration were given to mice. The vehicle for intravenous injection and oral administration was a mixed vehicle composed of 10% dimethyl sulfoxide and 90% hydroxypropyl β-cyclodextrin with a content of 10%. In this project, four male/female CD-1 mice were used. Two mice were injected intravenously at a dose of 1 mg/kg, and plasma samples were collected at 0.083, 0.25, 0.5, 1, 2, 4, 8, and 24 hours after administration; the other two were administered orally by gavage at a dose of 2 mg/kg, and plasma samples were collected at 0.25, 0.5, 1, 2, 4, 8, and 24 hours after administration. The samples were centrifuged at 3200 g for 10 minutes at 4° C., and plasma samples were obtained by separating the supernatant. A methanol solution containing internal standard with 20 times the volume of the sample was added thereto to precipitate the protein, and the mixture was centrifuged at 12000 g for 15 minutes at 4° C. 50 μL of the supernatant was taken and transferred to a 96-well plate and centrifuged again. The supernatant was taken for sampling. The plasma concentration was quantitatively analyzed using LC-MS/MS analysis method, and pharmacokinetic parameters, such as peak concentration (Cmax), clearance rate (CL), half-life (T1/2), volume of distribution at steady state (Vdss), area under drug-time curve (AUC0-last), bioavailability (F).

Broadly, the IC50 is the concentration that gives 50% inhibition. A high value points to weaker potency in that assay. A word on the bioavailability: it is dose-corrected exposure relative to a reference, in per cent.

As to `COc1ccc(-c2sc(C(=O)N3CCCNCC3)cc2-c2ccc(C#N)c(F)c2)cc1F` [Hydrochloride of compound 6], in series [1], half-maximal inhibition (IC50) was put at 112 nM. This molecule displayed an IC50 in series [2] of 37.9 nM. Moreover, in series [3] (female CD-1 mice), the clearance amounted to 18 mL/min/kg, the half-life was 5.37 h, the Vd was 7.76 L/kg and the bioavailability worked out at 64%. In series [3] (female CD-1 mice), the AUC(0-t) is 2.52 µM·h and the Cmax is 222 nM.

Take `COc1ccc(-c2sc(C(=O)N3CCC[C@@H](N)C3)cc2-c2ccc(C#N)c(F)c2)cc1F` [Hydrochloride of compound 1]: the concentration for half-maximal inhibition (IC50) in series [1] amounted to 82 nM. This molecule also gave an IC50 in series [2] of 6.88 nM. Besides, in series [3] (female CD-1 mice), the clearance turned out to be 17.8 mL/min/kg, the half-life is 5.59 h, the Vd was found to be 7.66 L/kg and the bioavailability was 47.2%. In series [3] (female CD-1 mice), the AUC(0-t) was determined as 1.56 µM·h and the Cmax is 245 nM. In series [3] (male CD-1 mice), the clearance was 16.7 mL/min/kg, the half-life is 6.13 h, the Vd was 8.33 L/kg and the bioavailability is 53.9%. For the same molecule, in series [3] (male CD-1 mice), the AUC(0-t) was 2.24 µM·h and the Cmax turned out to be 176 nM.

As for `COc1ccc(-c2sc(C(=O)N3C4CCC3C(N)C4)cc2-c2ccc(C#N)c(F)c2)cc1F` (racemic) [Hydrochloride of compound 2], in series [1], the IC50 worked out at 122 nM. Half-maximal inhibition in series [2] (IC50) required 1.75 nM. Also, in series [3] (female CD-1 mice), the clearance was determined as 19.6 mL/min/kg, the half-life is 5.23 h, the Vd was determined as 7.9 L/kg and the bioavailability was determined as 47.7%. Further, in series [3] (female CD-1 mice), the AUC(0-t) was found to be 1.43 µM·h and the Cmax turned out to be 209 nM.

In series [1], `COc1ccc(-c2sc(C(=O)N3CC[C@H](N)C3)cc2-c2ccc(C#N)c(F)c2)cc1F` [Hydrochloride of compound 7] yielded an IC50 of 121 nM. Besides, the IC50 in series [2] came out at 20.4 nM. In series [3] (female CD-1 mice), the clearance was found to be 20.9 mL/min/kg, the half-life is 3.74 h, the Vd worked out at 6.19 L/kg and the bioavailability is 52.4%. Moreover, in series [3] (female CD-1 mice), the AUC(0-t) was 1.89 µM·h and the Cmax turned out to be 176 nM.
